# Measured values: patent publication US10597398B2, “Suppression and regeneration promoting effect of low molecular weight compound on cancer and fibrosis” (NATIONAL UNIVERSITY CORPORATION TOTTORI UNIVERSITY, priority 2015, dated 2020)
# Key:
# [1] = tested on: cancer stem cells; conditions: Fbxw7-deficient model mice, Takeishi et al. 2013; cited from earlier work
# [2] = Liver cancer model mouse, body weight; type: in vivo, mice; conditions: 30 mg/kg 5-FU or 50 mg/kg IC-2 intraperitoneally every three days
# Procedure: CD44-positive HuH-7 cells were subcutaneously transplanted in mice. Next, the engrafted mice were divided into 3 groups (DMSO group: 5 mice; 5-FU group: 4 mice; and IC-2 group: 4 mice). Then, DMSO was added to prepare 30 mg/kg of 5-FU and 50 mg/kg of IC-2 such that each liquid volume was 100 μL; and 100% DMSO, a solvent for each drug, was used as a control sample. Subsequently, each drug was dosed intraperitoneally every three days. The body weight of each mouse and the long and short diameters of a tumor were measured every three days. The tumor volume was calculated by using the following equation: Tumor volume=Long diameter×(Short diameter)^2×0.5. The volume at Day 0 was used to normalize each tumor volume, and then a graph was created. To fully evaluate a 5-FU effect, the 5-FU dose was set to an amount 2 times the regular amount 15 mg/kg used in research articles. The concentration of IC-2 corresponding to a concentration at which Wnt/β-catenin signaling was inhibited in vitro was calculated. Then, the concentration was doubled to set an IC-2 dose.
# [3] = tested on: CD44-expressing HSC2 cells; experiment: CD44-expressing cells in HSC2 cells (cell sorter analysis); type: cell-based, human; conditions: 48 h, 25 μM IC-2 or 0.5 μM 5-FU, 83.9% without treatment
# Procedure: In addition, HSC2 cells were seeded at 5×10^5 cells/10-cm cell culture dish (TPP). After 24 h, the cells were treated with 0.5 μM of 5-FU or 25 μM of IC-2. Also prepared were cells without low-molecular-weight compound treatment (0 μM). After additional 48 h, the respective cells were harvested. As a primary antibody, used was a mouse anti-human CD44 antibody (Abcam Ltd., Cambridge, UK). Then, Alexa Fluor 488-labeled goat anti-mouse IgG (H+L) (Life Technologies Corp., Carlsbad, Calif.) was used. After that, a cell sorter BD bioscience FACS Aria (Becton, Dickinson and Company, Franklin Lakes, N.J.) was used for analysis.
# [4] = tested on: CD44high DLD-1 cells; experiment: CD44high cells in DLD-1 cells (FCM analysis); type: cell-based, human; conditions: 48 h, 50 μM IC-2, 0.5 or 5 μM 5-FU, compared with control
# Procedure: In addition, DLD-1 cells were seeded at 1×10^6 cells/10-cm cell culture dish. After 24 h, the cells were treated with 0.5 or 5 μM of 5-FU or 50 μM of IC-2. At additional 48 h, the cells were harvested. As a primary antibody, used was a mouse anti-human CD44 antibody (Abcam Ltd., Cambridge, UK). Then, Alexa Fluor 488-labeled goat anti-mouse IgG (H+L) (Life Technologies Corp., Carlsbad, Calif.) was used. After that, a MoFlo XDP (Beckman Coulter Inc., Fullerton, Calif.) was used for analysis.
# [5] = tested on: cancer stem cells (CD44) in HuH-7 cells; experiment: Inhibitory effect on cancer stem cells (FCM analysis of CD44), Example 6.4; type: cell-based, human; conditions: CD44, day 2, IC-2 50 μM, 5-FU 0.5 μM, compared with control 1% DMSO
# Procedure: CD44, a cancer stem cell marker, was used as an indicator to examine an inhibitory effect of IC-2 on cancer stem cells. First, 70 to 90% confluent HuH-7 cells were harvested and seeded at 1.5×10^6 cells per 10-cm cell culture dish. After 15 h, the cells were treated with hexachlorophene (15 μM), ICG-001 (15 μM), PKF118-310 (5 μM), IC-2 (50 μM), or 5-FU (0.5 μM), and the mixture was cultured at 37° C. Each control sample used was 1% DMSO, a solvent for each compound or the anti-cancer drug. Day 2 after the drug treatment, the cells were harvested from each culture dish. The cells were centrifuged at 1000 rpm and at 4° C. for 5 min to remove a supernatant and were then washed twice with 1 mL of 0.5% FBS/2 mM EDTA/PBS. Next, the cells were suspended in 500 μL of 5% BSA/0.5% FBS/2 mM EDTA/PBS for blocking at 4° C. for 15 min.
# Then, 5 μL of a mouse anti-human CD44 monoclonal antibody (156-3C11, Cell Signaling Technology Inc., Danvers, Mass.) was added to 500 μL of the cell suspension. The mixture was resuspended and subjected to a primary antibody reaction in a dark room at 4° C. for 10 min. After that, the cells were washed 3 times with 1 mL of PBS. Subsequently, 1.0 μg of Alexa Fluor 488-labeled IgG (H+L) (Life Technologies Corp., Carlsbad, Calif.) was added and the mixture was suspended. Then, a secondary antibody reaction was carried out in a dark room at 4° C. for 10 min. […]
# [6] = tested on: Wnt/β-catenin signal; conditions: as described in Patent Literature 1; cited from earlier work
compound,measurement,setting,value
Cc1ccc(NC(=O)c2ccc(CN3CCN(C)CC3)cc2)cc1Nc1nccc(-c2cccnc2)n1 [imatinib],cancer stem cells,[1],cancer stem cells were killed
"O=c1[nH]cc(F)c(=O)[nH]1 [Compound 5-FU, 5-fluorouracil, reference compound]",body weight,[2],no change in the body weight
same,percentage of CD44-expressing cells,[3],83.3%
same,percentage of CD44high cells,[4],rather increased the percentage
same,number of cancer stem cells,[5],rather increased the number of cancer stem cells
"COc1c(Cl)cc(Cl)c(Cl)c1Cc1c(Cl)c(Cl)cc(Cl)c1OC [HC-1, hexachlorophene methyl ether bis(2,3,5-trichloro-6-methoxyphenyl)methane]",Wnt/β-catenin signal in a mesenchymal stem cell and differentiation into hepatocytes,[6],"inhibit a Wnt/β-catenin signal in a mesenchymal stem cell, thereby inducing differentiation of the mesenchymal stem cell into hepatocytes"
